The values that follow come from patent publication US20090305244A1, “Selection, Propagation and Use of Mosaic Aneuploid Stem Cells” (The Scripps Research Institute, priority 2005, published 2009).

Assay [1] concerns Mouse ESC. Briefly: Chromosome counts of ESCs treated with taxol during PA6 co-culture differentiation. In kind it is cell-based. The note with it: FIG. 3. The source says:
(§1) A key attribute of HESCs is their ultimate ability to differentiate into normal, mature cells. There is ample evidence that the differentiation of ES cells can be manipulated to give rise to enriched populations of neuronal cells. Stromal PA6 cells, when used as feeders, promote neural differentiation by inducing mouse ES colonies to become Tuj-1-positive and with robust neuritogenesis (Kawasaki et al., 2000). To examine the differentiation potential of anueploid vs. euploid cells, mammalian ESCs were treated with (aneuploid) or without (euploid) taxol and were examined for their ability to differentiate into neurons when cocultured with PA6 cells. Following 1 week of differentiation, 55% of taxol treated cells had gained chromosomes (FIG. 3).
(§2) Mouse ESC were co-cultured with PA6 cells (Kawasaki et al., 2002) for 1 week under differentiation conditions (DMEM/F12 Glutamax (Gibco, Carlsbad, Calif.), 10% “KNOCKOUT” serum replacement (Gibco), 0.1 mM non-essential aminoacids (Gibco) and 0.1 mM β-mercaptoethanol (Gibco). Cells were treated with taxol (Sigma) at a concentration of 2.5 nM.
HESC Chromosome spreads were obtained by standard protocols (Barch et al., 1997; Rehen et al., 2001). […]
For each sample, 40 metaphase spreads were captured and analyzed by SKY and 70 metaphase spreads counterstained with DAPI were captured for aneuploidy quantification.

Assay [2] has as its system Mouse ESC. Nature of the assay: Neuronal differentiation of ESCs co-cultured with PA6 cells (tuj1 staining). In kind it is cell-based. The note with it: taxol 2.5 nM versus without taxol; PA6 co-culture 1 week; FIG. 4.
From the text: as §1, §2
Immunofluorescence staining was performed as previously described (Gage et al., 1995), using α-β-tubulin-III (Tuj-1; 1/1000, Covance). Secondary antibodies were purchased from Jackson ImmunoResearch.

Molecules are shown by their SMILES. Entries after “also recorded” stand apart in the source; their conditions may differ.

Take `CC(=O)O[C@H]1C(=O)[C@@]2(C)[C@H]([C@H](OC(=O)c3ccccc3)[C@]3(O)C[C@H](OC(=O)[C@H](O)[C@@H](NC(=O)c4ccccc4)c4ccccc4)C(C)=C1C3(C)C)[C@]1(OC(C)=O)CO[C@@H]1C[C@@H]2O` [taxol]: in assay [1] (ESCs on PA6 cells treated with taxol for 6 days), the “induction of aneuploidy (chromosome counts)” value is “induces aneuploidy, specifically hyperploidy”. The “taxol treated cells that had gained chromosomes” value in assay [1] (taxol 2.5 nM, following 1 week of differentiation on PA6 cells) is 55%. Moreover, in assay [2], the “number of neuronally differentiated colonies (tuj1 staining) / neuronal differentiation potential” value is recorded as “significantly reduces neuronal differentiation potential; also recorded: significant decrease”.
